One data set has as its system Male ICR mice. Description: animal or person. Type of data set: in vivo. As to conditions: for ED50: Mus musculus, ip, read-out: Writhing Test (ED50 = μG/KG); for Relative effect (fold stronger than capsaicin): mouse, in vivo. In general terms: In writhing tests, fewer writhes than in controls are read as antinociception.
Data set [1] has as its target T1, VR1 (Rattus norvegicus, UniProt O35433).
T1 construct: expressed in transfected cells; host or cells: Chinese Hamster Ovary cells (CHO, ATCC CCL-61), Tet-off inducible expression
The data set is described as follows: biochemical. Type of data set: binding.

Data set [2] has as its target T1, VR1. The data set is described as follows: cell-based.
A further data set deals with Male Sprague-Dawley rat. Conditions: in vivo.
The mark [3] stands for this setting: read-out: Binding Affinity (Ki = nM).

SMILES strings stand for the structures. Like-named read-outs stand apart in the source and are kept apart here.

T1 sequence (O35433 whole entry): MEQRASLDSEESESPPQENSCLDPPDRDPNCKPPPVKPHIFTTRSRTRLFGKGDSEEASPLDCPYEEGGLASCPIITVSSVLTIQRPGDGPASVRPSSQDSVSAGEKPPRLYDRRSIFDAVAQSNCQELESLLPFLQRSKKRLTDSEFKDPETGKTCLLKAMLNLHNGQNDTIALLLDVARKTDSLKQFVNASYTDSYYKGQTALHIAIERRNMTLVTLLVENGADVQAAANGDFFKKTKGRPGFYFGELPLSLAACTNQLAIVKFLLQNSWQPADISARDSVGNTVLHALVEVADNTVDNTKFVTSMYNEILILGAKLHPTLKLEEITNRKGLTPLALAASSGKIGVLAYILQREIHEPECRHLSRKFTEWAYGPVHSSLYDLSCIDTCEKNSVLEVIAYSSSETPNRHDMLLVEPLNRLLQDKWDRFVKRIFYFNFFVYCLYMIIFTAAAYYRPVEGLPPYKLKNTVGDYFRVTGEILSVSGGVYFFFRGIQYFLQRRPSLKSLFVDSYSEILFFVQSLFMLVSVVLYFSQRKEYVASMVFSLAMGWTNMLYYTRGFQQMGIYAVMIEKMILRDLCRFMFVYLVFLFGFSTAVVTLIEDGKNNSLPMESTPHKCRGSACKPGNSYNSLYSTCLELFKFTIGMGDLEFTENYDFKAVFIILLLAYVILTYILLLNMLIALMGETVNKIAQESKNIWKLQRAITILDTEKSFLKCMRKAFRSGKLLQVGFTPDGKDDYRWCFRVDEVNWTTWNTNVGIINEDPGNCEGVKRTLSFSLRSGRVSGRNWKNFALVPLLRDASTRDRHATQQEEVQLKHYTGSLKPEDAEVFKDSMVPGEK

Regarding `COc1cc(CNC(=O)CCCC/C=C/C(C)C)ccc1O` [Capsaicin, 8-methyl-N-vanillyl-6-nonenamides, reference compound], in the data set with Male ICR mice, the ED50 was found to be 1.34 µg/kg.
For orientation: Ki means a measure of affinity in units of concentration, obtained from inhibition or displacement. `COc1cc(CNC(=S)NCC(CCc2ccc(C)c(C)c2)COC(=O)C(C)(C)C)ccc1O` (stereo not shown) [Compound 28, N-[4-(3,4-Dimethylphenyl)-2-(pivaloyloxymethyl)butyl]-N′-[4-hydroxy-3-methoxybenzyl]thiourea] showed a Ki at VR1 [1] of 24.9 nM.
`COc1cc(CNC(=S)NCC(CCc2ccc(C(C)(C)C)cc2)COC(=O)C(C)(C)C)ccc1O` (stereo not shown) [Compound 29, N-[4-tert-Butylphenyl-2-(pivaloyloxymethyl)butyl]-N′-[4-hydroxy-3-methoxybenzyl]thiourea] registered a Ki at VR1 [1] of 18.3 nM.
As a reminder, the EC50 is the concentration that produces a half-maximal response. Lower therefore signals an effect from little substance. With `COc1cc(CC(=O)NCC(CCc2ccc(C)c(C)c2)COC(=O)C(C)(C)C)ccc1O` (stereo not shown) [Compound 34, N-[4-(3,4-Dimethylphenyl)-2-(pivaloyloxymethyl)butyl]-2-[4-hydroxy-3-methoxyphenyl]acetamide], the Ki at VR1 [1] was found to be 153 nM. On VR1 [2], the response was half-maximal at 0.784 nM (EC50), the “fold stronger effect than JYL-273 (45Ca influx EC50)” value is listed as 4 fold, the “fold stronger effect than LJO-198 (45Ca influx EC50)” value came out at 16 fold and the “fold stronger effect than capsaicin (45Ca influx EC50)” value is 57 fold. In the data set on Male ICR mice, the ED50 was found to be 0.934 µg/kg and the “Relative effect (fold stronger than capsaicin)” value is on record as 1.4.
Consider `COc1cc(CC(=O)NCC(CCc2ccc(C(C)(C)C)cc2)COC(=O)C(C)(C)C)ccc1O` (stereo not shown) [Compound 35, N-[4-(4-tert-Butylphenyl)-2-(pivaloyloxymethyl)butyl]-2-[4-hydroxy-3-methoxyphenyl]acetamide], for which the affinity on VR1 [1], expressed as Ki, was 36.3 nM.
In the case of `COc1cc(CC(=O)NCC(CCc2ccc(C)c(C)c2)COC(=O)C(C)(C)C)ccc1OCCN` (stereo not shown) [Compound 38, N-[4-(3,4-Dimethylphenyl)-2-(pivaloyloxymethyl)butyl]-2-[4-(2-aminoethoxy)-3-methoxyphenyl]acetamide], at VR1 [1], affinity was put at a Ki of 855 nM. In the data set with Male ICR mice, the ED50 was 0.076 µg/kg and the “Relative effect (fold stronger than capsaicin)” value was found to be 18. Moreover, in the data set with Male Sprague-Dawley rat, the “MPP (moderate pain-producing potency)” value amounted to 29 µg/mL and the “RPP (relative pain-producing potency)” value is about 5.5.
`COc1cc(CNC(=S)NC(COC(=O)C(C)(C)C)Cc2ccc(C)c(C)c2)ccc1O` (stereo not shown) [Compound 62, N-[3-(3,4-Dimethylphenyl)-1-pivaloyloxy-2-propyl]-N′-[4-hydroxy-3-methoxybenzyl]thiourea] gave a Ki on VR1 [1] of 45.3 nM. In the data set on Male ICR mice, the ED50 was 0.006 µg/kg and the “Relative effect (fold stronger than capsaicin)” value came out at 224. Further, in the data set on Male Sprague-Dawley rat, the “MPP (moderate pain-producing potency)” value worked out at 11.57 µg/mL and the “RPP (relative pain-producing potency)” value was found to be 14.
`COc1cc(CNC(=S)NC(COC(=O)C(C)(C)C)Cc2ccc(C(C)(C)C)cc2)ccc1O` (stereo not shown) [Compound 63, N-[3-(4-tert-Butylphenyl)-1-pivaloyloxy-2-propyl]-N′-[4-hydroxy-3-methoxybenzyl]thiourea]: on VR1 [1], the Ki turned out to be 34.6 nM. Further, in the data set on Male ICR mice, the ED50 was 0.00036 µg/kg.
Compound `COc1cc(CNC(=S)NC(CCc2ccc(C)c(C)c2)COC(=O)C(C)(C)C)ccc1O` (stereo not shown) [Compound 64, N-[4-(3,4-Dimethylphenyl)-1-pivaloyloxy-2-butyl]-N′-[4-hydroxy-3-methoxybenzyl]thiourea] came in with a Ki at VR1 [1] of 244 nM.
Consider `COc1cc(CNC(=S)NC(COC(=O)C(C)(C)C)Cc2ccc(C)c(C)c2)ccc1OCCN` (stereo not shown) [Compound 74, N-[3-(3,4-Dimethylphenyl)-1-pivaloyloxy-2-propyl]-N′-[4-(2-aminoethoxy)-3-methoxybenzyl]thiourea], for which the ED50 in the data set on Male ICR mice is 3e-05 µg/kg. Also, the “MPP (moderate pain-producing potency)” value with Male Sprague-Dawley rat is 18.02 µg/mL.
`COc1cc(CNC(=S)NC(COC(=O)C(C)(C)C)Cc2ccc(C(C)(C)C)cc2)ccc1OCCN` (stereo not shown) [Compound 75, N-[3-(4-tert-Butylphenyl)-1-pivaloyloxy-2-propyl]-N′-[4-(2-aminoethoxy)-3-methoxybenzyl]thiourea]: the affinity at VR1 [1] corresponds to a Ki of 341 nM. Further, in the data set on Male ICR mice, the ED50 was determined as 0.00061 µg/kg. Moreover, in the data set with Male Sprague-Dawley rat, the “MPP (moderate pain-producing potency)” value stood at 47 µg/mL and the “RPP (relative pain-producing potency)” value was about 3.4.
On VR1 [1], `COc1cc(CNC(=S)OCC(COC(=O)C(C)(C)C)Cc2ccc(C)c(C)c2)ccc1O` (stereo not shown) [Compound 125, N-(4-hydroxy-3-methoxybenzyl)-O-[2-(3,4-Dimethylbenzyl)-3-(pivaloyloxy)propyl]thiocarbamate] displayed a Ki of 143 nM.
For `COc1cc(CNC(=S)OCc2ccc(C(C)(C)C)cc2)ccc1O` [Compound 132, O-(4-tert-Butylbenzyl)-N-(4-hydroxy-3-methoxybenzyl) thiocarbamate], on VR1 [1], the Ki turned out to be 1960 nM.
On VR1 [1], `COc1cc(COC(=S)NCC(COC(=O)C(C)(C)C)Cc2ccc(C)c(C)c2)ccc1O` (stereo not shown) [Compound 140, N-[2-(3,4-Dimethylbenzyl)-3-(pivaloyloxy)propyl]-O-(4-hydroxy-3-methoxybenzyl)thiocarbamate] displayed a Ki of 156 nM. For the same compound, at VR1 [2], it took 2.4 nM to reach a half-maximal effect (EC50).
With `COc1cc(COC(=S)NCc2ccc(C(C)(C)C)cc2)ccc1O` [Compound 147, N-(4-tert-Butylbenzyl)-O-(4-hydroxy-3-methoxybenzyl)thiocarbamate], the Ki on VR1 [1] was found to be 1940 nM.
In the case of `COc1cc(CNC(=S)NCC(COC(=O)C(C)(C)C)Cc2ccc(C)c(C)c2)ccc1O` (stereo not shown) [JYL-79, reference compound], the Ki on VR1 [1] (setting [3]) was found to be 17.4 nM. In the data set on Male ICR mice, the ED50 amounted to 0.161 µg/kg and the “Relative effect (fold stronger than capsaicin)” value was found to be 8. In addition, in the data set with Male Sprague-Dawley rat, the “MPP (moderate pain-producing potency)” value worked out at 1.7 µg/mL and the “RPP (relative pain-producing potency)” value is given as 94.
For the compound `COc1cc(CNC(=S)NCC(COC(=O)C(C)(C)C)Cc2ccc(C(C)(C)C)cc2)ccc1O` (stereo not shown) [JYL-273, reference compound], the Ki at VR1 [1] (setting [3]) stood at 6.35 nM. Besides, the ED50 in the data set on Male ICR mice stood at 0.107 µg/kg. For the same compound, in the data set with Male Sprague-Dawley rat, the “MPP (moderate pain-producing potency)” value was 23 µg/mL and the “RPP (relative pain-producing potency)” value is recorded as 7.
For the compound `COc1cc(CC(=O)NCC(COC(=O)C(C)(C)C)Cc2ccc(C)c(C)c2)ccc1O` (stereo not shown) [LJO-198, reference compound], affinity on VR1 [1] was put at a Ki of 157 nM. In the data set with Male ICR mice, the ED50 amounted to 0.0235 µg/kg and the “Relative effect (fold stronger than capsaicin)” value stood at 57.
The compound `COc1cc(CC(=O)NCC(COC(=O)C(C)(C)C)Cc2ccc(C)c(C)c2)ccc1OCCN` (stereo not shown) [MSK-195, reference compound] displayed a Ki on VR1 [1] of 603 nM. In addition, in the data set on Male ICR mice, the ED50 was found to be 1.17 µg/kg and the “Relative effect (fold stronger than capsaicin)” value is reported as 1.1. In the data set on Male Sprague-Dawley rat, the “MPP (moderate pain-producing potency)” value is 14.9 µg/mL and the “RPP (relative pain-producing potency)” value is on record as 11.

For the origin of these results see patent publication US6872748B2 (priority 2001, dated 2005).
